# Laboratory results taken from PMC8760490, “Discovery of novel furanylbenzamide inhibitors that target oncogenic tyrosine phosphatase SHP2 in leukemia cells” (The Journal of Biological Chemistry, 2021).
# Assays:
# Format in all cases: biochemical
# [1] = molecular target: T1, full-length SHP2-E76K oncogenic mutant (Homo sapiens, UniProt Q06124, E76K); experiment: DiFMUP fluorescence phosphatase inhibition assay, SHP2-E76K; conditions: for IC50: DiFMUP at Km (20 μM), 10-point dose–response, pH 6.0
# T1 construct: Recombinant human full-length SHP2 (1–594) WT and E76K mutants; made in house
# T1 sequence (Q06124 1-593 E76K): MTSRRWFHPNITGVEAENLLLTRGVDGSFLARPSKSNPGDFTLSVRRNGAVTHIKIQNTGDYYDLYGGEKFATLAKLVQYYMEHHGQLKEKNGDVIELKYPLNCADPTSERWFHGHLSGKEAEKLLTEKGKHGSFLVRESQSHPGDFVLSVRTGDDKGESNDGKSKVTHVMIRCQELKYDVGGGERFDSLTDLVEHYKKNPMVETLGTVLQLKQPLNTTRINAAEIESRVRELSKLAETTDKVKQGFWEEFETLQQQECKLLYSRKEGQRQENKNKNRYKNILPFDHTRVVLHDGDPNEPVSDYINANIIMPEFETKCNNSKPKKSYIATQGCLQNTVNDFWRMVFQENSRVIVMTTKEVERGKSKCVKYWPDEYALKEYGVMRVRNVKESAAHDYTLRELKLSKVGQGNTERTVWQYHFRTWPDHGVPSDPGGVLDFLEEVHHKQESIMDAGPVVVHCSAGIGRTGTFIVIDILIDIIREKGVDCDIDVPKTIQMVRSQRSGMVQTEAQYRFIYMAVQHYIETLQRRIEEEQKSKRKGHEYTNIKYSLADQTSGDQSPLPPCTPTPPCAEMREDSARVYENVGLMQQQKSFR
# From the text: (§1) To test the synthesized compounds for their potential to inhibit SHP2 activity, a fluorescence intensity-based assay using 6,8-difluoro-4-methylumbelliferyl phosphate (DiFMUP) as the substrate was adapted for three recombinant SHP2 constructs: (1) the SHP2 catalytic domain (SHP2cat; residues 248–527), (2) the full-length SHP2-E76K oncogenic mutant, and (3) the full-length SHP2 WT (SHP2-WT). The recombinant SHP2 proteins were expressed and purified as described previously ([36]). A dually phosphorylated peptide derived from the insulin receptor substrate 1 (IRS-1) served as a surrogate binding protein and was used to activate SHP2-WT ([30], [36]). […] Michaelis–Menten experiments to determine the DiFMUP Michaelis–Menten constant (Km) for each SHP2 construct were performed as described previously ([36]) and yielded the following values: SHP2-WT, Km = 60 μM; SHP2-E76K, Km = 20 μM; and SHP2cat, Km = 20 μM. Relative maximum rates (Vmax) of the DiFMUP reactions expressed as relative fluorescence units per minute (RFU/min) were as follows: SHP2-WT, Vmax = 871 RFU/min; SHP2-E76K, Vmax = 2730 RFU/min; and SHP2cat, Vmax = 2912 RFU/min. IC50 values for each compound were determined from initial rates in 10-point dose–response assays using DiFMUP at a concentration corresponding to its Km value for the respective SHP2 construct. […] Replacements for the benzothiophenone were explored using analog #10.
# (§2) Recombinant human full-length SHP2 (1–594) WT and E76K mutants, as well as the SHP2cat (248–527), were expressed and purified as described before ([36], [41]). Recombinant human PTP1B (1–300) and the codon-optimized STEP (280–566) catalytic domains were cloned into PET-15b and expressed as N-His-tagged fusion proteins. For expression, transformed BL21(DE3) cells were grown and induced similar as described for SHP2. Collected cells were resuspended in lysis buffer (25 mM Tris, pH 7.5, 300 mM NaCl, 50 mM imidazole, and 10% glycerol) with 100 mg/l RNaseA and were lysed with two passages using a microfluidizer. The lysate was clarified by centrifugation at 15,000g for 50 min and applied to nickel–nitrilotriacetic acid resin. The column resin was washed, and the PTP1B or STEP protein was eluted in lysis buffer at 300 mM imidazole. The PTP1B or STEP protein was further purified by S75 size-exclusion chromatography in 50 mM Tris, pH 7.5, 50 mM NaCl. The eluted peak fractions were supplemented with tris(2-carboxyethyl)phosphine to 10 mM, concentrated by ultrafiltration, and stored at −80 °C. The purified yield of PTP1B was 33 mg/l cell culture; the yield of STEP was 16 mg/l cell culture.
# (§3) SHP2 inhibitors were tested at RT in a 384-well plate format standard phosphatase fluorescence intensity assay using DiFMUP (Invitrogen/Thermo Fisher Scientific) as a substrate and a total reaction volume of 25 μl. SHP2 inhibitors or vehicle (DMSO) were spotted in triplicate into a black Greiner FLUOTRAC 200 384-well microplate (catalog no.: 781076; Greiner) for a 10-point dose–response assay using an Echo 555 Liquid Handler (Labcyte, Inc). PTP working solutions were prepared at a 0.625 nM concentration (for a final concentration of 0.5 nM) in buffer containing 50 mM Bis–Tris, pH 6.0, 50 mM NaCl, 5 mM DTT, and 0.01% Tween-20. Prior to the assay, a dually phosphorylated IRS-1 peptide (625 nM [500 nM final] ([30])) was added to full-length WT SHP2 working solutions and incubated for 20 min. DiFMUP working solutions at 5× final concentration were prepared in 50 mM Bis–Tris, pH 6.0, 50 mM NaCl, and 0.01% Tween-20. About 20 μl of PTP working solution was dispensed into the microplate and incubated with inhibitor for 20 min at RT. […] The reaction was initiated by addition of 5 μl DiFMUP working solutions. Fluorescence intensity was measured in kinetic mode (every minute for 7 or 10 min) using a Tecan Spark Multimode Microplate Reader (Tecan) with an excitation wavelength of 360 nm and an emission wavelength of 460 nm. […]
# [2] = molecular target: T2, full-length SHP2 WT (SHP2-WT) (Homo sapiens, UniProt Q06124); experiment: DiFMUP fluorescence phosphatase inhibition assay, SHP2-WT activated with IRS-1 peptide; conditions: DiFMUP at Km (60 μM), pH 6.0
# T2 construct: Recombinant human full-length SHP2 (1–594) WT and E76K mutants; made in house
# From the text: as §1, §2, §3
# [3] = molecular target: T3, SHP2 catalytic domain (SHP2cat; residues 248–527) (Homo sapiens, UniProt Q06124); experiment: DiFMUP fluorescence phosphatase inhibition assay, SHP2cat; conditions: DiFMUP at Km (20 μM), pH 6.0; read-out: SHP2cat; IC50
# T3 construct: the SHP2 catalytic domain (SHP2cat; residues 248–527); made in house
# T3 sequence (Q06124 248-527): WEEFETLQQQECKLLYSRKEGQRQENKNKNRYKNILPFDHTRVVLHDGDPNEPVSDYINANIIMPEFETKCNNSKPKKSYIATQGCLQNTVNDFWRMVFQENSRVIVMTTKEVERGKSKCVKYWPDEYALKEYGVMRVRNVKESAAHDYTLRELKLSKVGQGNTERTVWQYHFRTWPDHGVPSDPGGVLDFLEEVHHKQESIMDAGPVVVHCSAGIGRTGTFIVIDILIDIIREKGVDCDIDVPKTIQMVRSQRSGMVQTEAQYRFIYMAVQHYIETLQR
# From the text: as §1, §2, §3
Structure (SMILES),IC50 [1] [µM],IC50 [2] [µM],IC50 [3] [µM],loss in potency compared with #01 ([1]; E76K IC50) [fold]
"O=C(O)c1cc(-c2ccc(/C=C3\Oc4ccccc4C3=O)o2)ccc1O [SBI-0165, (Z)-2-Hydroxy-5-(5-((3-oxobenzofuran-2(3H)-ylidene)methyl)furan-2-yl)benzoic acid]",7.2,13,2.4,
"CC(C)NC(=O)c1cc(-c2ccc(/C=C3\Sc4ccccc4C3=O)o2)ccc1O [SBI-0287, (Z)-2-Hydroxy-N-isopropyl-5-(5-((3-oxobenzo[b]thiophen-2(3H)-ylidene)methyl)furan-2-yl)benzamide]",20,53,,
"O=C(NCCO)c1cc(-c2ccc(/C=C3\Sc4ccccc4C3=O)o2)ccc1O [SBI-1457, (Z)-2-Hydroxy-N-(2-hydroxyethyl)-5-(5-((3-oxobenzo[b]thiophen-2(3H)-ylidene)methyl)furan-2-yl)benzamide]",> 100,> 100,,
"O=C1/C(=C/c2ccc(-c3ccc(O)c(C(=O)N4CCNCC4)c3)o2)Sc2ccccc21 [SBI-2124, (Z)-2-((5-(4-Hydroxy-3-(piperazine-1-carbonyl)phenyl)furan-2-yl)methylene)benzo[b]thiophen-3(2H)-one]",91,> 100,,
"CN1CCN(C(=O)c2cc(-c3ccc(/C=C4\Sc5ccccc5C4=O)o3)ccc2O)CC1 [SBI-2125, (Z)-2-((5-(4-Hydroxy-3-(4-methylpiperazine-1-carbonyl)phenyl)furan-2-yl)methylene)benzo[b]thiophen-3(2H)-one]",> 100,> 100,,
"Nc1cccc(NC(=O)c2cc(-c3ccc(/C=C4\Sc5ccccc5C4=O)o3)ccc2O)c1 [SBI-2126, (Z)-N-(3-Aminophenyl)-2-hydroxy-5-(5-((3-oxobenzo[b]thiophen-2(3H)-ylidene)methyl)furan-2-yl)benzamide]",7.2,18,5,
"O=C(NNc1ccccc1)c1cc(-c2ccc(/C=C3\Sc4ccccc4C3=O)o2)ccc1O [SBI-2128, (Z)-2-Hydroxy-5-(5-((3-oxobenzo[b]thiophen-2(3H)-ylidene)methyl)furan-2-yl)-N′-phenylbenzohydrazide]",11,14,3.1,
"O=C(NCc1ccccc1)c1cccc(-c2ccc(/C=C3\Sc4ccccc4C3=O)o2)c1 [SBI-2129, (Z)-N-benzyl-3-(5-((3-oxobenzo[b]thiophen-2(3H)-ylidene)methyl)furan-2-yl)benzamide]",65,> 100,,
"O=C1/C(=C/c2ccc(-c3ccc(O)c(C(=O)N4CCCCC4)c3)o2)Sc2ccccc21 [SBI-2131, (Z)-2-((5-(4-Hydroxy-3-(piperidine-1-carbonyl)phenyl)furan-2-yl)methylene)benzo[b]thiophen-3(2H)-one]",15,52,4.3,
"O=C(Nc1ccccc1)c1cc(-c2ccc(/C=C3\Sc4ccccc4C3=O)o2)ccc1F [SBI-2348, (Z)-2-Fluoro-5-(5-((3-oxobenzo[b]thiophen-2(3H)-ylidene)methyl)furan-2-yl)-N-phenylbenzamide]",> 100,> 100,,
"COc1ccc(-c2ccc(/C=C3\Sc4ccccc4C3=O)o2)cc1C(=O)Nc1ccccc1 [SBI-2349, (Z)-2-Methoxy-5-(5-((3-oxobenzo[b]thiophen-2(3H)-ylidene)methyl)furan-2-yl)-N-phenylbenzamide]",84,87,,
"O=C1CCCC1=Cc1ccc(-c2ccc(O)c(C(=O)O)c2)o1 [SBI-3191, 2-Hydroxy-5-(5-((2-oxocyclopentylidene)methyl)furan-2-yl)benzoic acid]",6,24,7.4,
"O=C1CCCCC1=Cc1ccc(-c2ccc(O)c(C(=O)O)c2)o1 [SBI-3194, 2-Hydroxy-5-(5-((2-oxocyclohexylidene)methyl)furan-2-yl)benzoic acid]",39,56,,
"O=C(O)c1cc(-c2ccc(C=C3Cc4ccccc4C3=O)o2)ccc1O [SBI-3204, 2-Hydroxy-5-(5-((1-oxo-1,3-dihydro-2H-inden-2-ylidene)methyl)furan-2-yl)benzoic acid]",10,15,4.5,
"O=C1/C(=C/c2ccc(-c3ccccc3)o2)Sc2ccccc21 [SBI-3570, (Z)-2-((5-phenylfuran-2-yl)methylene)benzo[b]thiophen-3(2H)-one]",> 100,> 100,,
"O=C1/C(=C/c2ccc(-c3ccc(O)cc3)o2)Sc2ccccc21 [SBI-4167, (Z)-2-((5-(4-Hydroxyphenyl)furan-2-yl)methylene)benzo[b]thiophen-3(2H)-one]",79,> 100,,~165
"O=C(Nc1ccccc1)c1cc(-c2ccco2)ccc1O [SBI-4232, 5-(Furan-2-yl)-2-hydroxy-N-phenylbenzamide]",> 100,> 100,,
"O=C(Nc1ccccc1)c1cccc(-c2ccc(/C=C3\Sc4ccccc4C3=O)o2)c1 [SBI-5923, (Z)-3-(5-((3-Oxobenzo[b]thiophen-2(3H)-ylidene)methyl)furan-2-yl)-N-phenylbenzamide]",52,62,,
